Several values for one entry are separate records, joined by “and”; a condition that tells them apart may be missing. Identical values can stand only once. Inconclusive results and toxic doses are left out.

The assay has as its system L1210 leukemia ip in BDF1 mice, survival T/C. The assay can be described thus: NCI In Vivo Anticancer Drug Screen. Data for tumor model L1210 Leukemia (intraperitoneal) in B6D2F1 (BDF1) mice. The settings on record: endpoint: mean survival time, higher = longer survival. The procedure, abridged:
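Value reflects the ratio of survival in compound-treated mice to survival in vehicle-treated controls, with both groups carrying the same transplanted tumor.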

Where [1] appears, read: dose: 75.0 mg/kg/injection, schedule: Q01DX001 (ip), vehicle: other.
The mark [2] stands for this setting: dose: 150.0 mg/kg/injection, schedule: Q01DX001 (ip), vehicle: other.
[3] abbreviates: dose: 300.0 mg/kg/injection, schedule: Q01DX001 (ip), vehicle: other.
Where [4] appears, read: dose: 100.0 mg/kg/injection, schedule: Q04DX002 (ip), vehicle: saline with Tween-80.
[5] abbreviates: dose: 200.0 mg/kg/injection, schedule: Q04DX002 (ip), vehicle: saline with Tween-80.
Setting [6] is: dose: 400.0 mg/kg/injection, schedule: Q04DX002 (ip), vehicle: saline with Tween-80.
Setting [7] is: dose: 25.0 mg/kg/injection, schedule: Q04DX002 (ip), vehicle: saline with Tween-80.
Where [8] appears, read: dose: 50.0 mg/kg/injection, schedule: Q04DX002 (ip), vehicle: saline with Tween-80.
[9] abbreviates: dose: 100.0 mg/kg/injection, schedule: Q01DX009 (ip), vehicle: saline.
The mark [10] stands for this setting: dose: 200.0 mg/kg/injection, schedule: Q01DX009 (ip), vehicle: saline.
Where [11] appears, read: dose: 400.0 mg/kg/injection, schedule: Q01DX009 (ip), vehicle: saline.

With `CCC/C=C(\C)C(C)(C#N)C(=O)OCC` (configuration not stated), the T/C was 112 % of control under setting [1], 98 % of control under setting [2] and 110 % of control under setting [3].
With `Cc1cccc(N=Cc2ccc(Cl)cc2Cl)c1C`, the T/C (dose: 100.0 mg/kg/injection, schedule: Q01DX009 (ip), vehicle: alcohol) is 95 % of control; the T/C under setting [4] was 106 % of control; the T/C (dose: 200.0 mg/kg/injection, schedule: Q01DX009 (ip), vehicle: alcohol) is 87 % of control; the T/C under setting [5] was 102 % of control; the T/C under setting [6] was 98 % of control.
As to `C=CCN1/C(=C\C=C\c2ccc3cc(C)ccc3[n+]2CC=C)C=Cc2cc(C)ccc21`, the T/C (dose: 1.17 mg/kg/injection, schedule: Q01DX001 (ip), vehicle: steriod suspending solution) is 111 % of control.
With `C=C(Br)CNC(=O)CCC`, the T/C by setting is: (dose: 5.0 mg/kg/injection, schedule: Q04DX003 (ip), vehicle: saline) 92 % of control; (dose: 10.0 mg/kg/injection, schedule: Q04DX003 (ip), vehicle: saline) 97 % of control.
Take `CCOC(=O)/C(C#N)=C1\CCC=C(C)C1`: the T/C was 97 % of control under setting [1], 102 % of control under setting [2] and 98 % of control under setting [3].
With `CN(C)c1ccc2cc3ccc(N(C)C)cc3nc2c1`, the T/C by setting is: (dose: 6.25 mg/kg/injection, schedule: Q01DX009 (ip), vehicle: saline with Tween-80) 93 % of control; (dose: 12.5 mg/kg/injection, schedule: Q01DX009 (ip), vehicle: saline with Tween-80) 98 % of control; (dose: 25.0 mg/kg/injection, schedule: Q01DX009 (ip), vehicle: saline with Tween-80) 93 % of control; under setting [7], 98 % of control; under setting [8], 98 % of control.
For the compound `CCNC(=O)c1ccc(NC(=O)Nc2ccc(C3=NCCN3)cc2)cc1NC(=O)Nc1ccc(C2=NCCN2)cc1`, the T/C (dose: 37.5 mg/kg/injection, schedule: Q01DX015 (ip), vehicle: water) was 198 % of control; the T/C (dose: 46.0 mg/kg/injection, schedule: Q01DX001 (ip), vehicle: water) is 123 % of control; the T/C (dose: 50.0 mg/kg/injection, schedule: Q01DX015 (ip), vehicle: water) is 163 % of control; the T/C (dose: 62.5 mg/kg/injection, schedule: Q01DX Z (ip), vehicle: water) was 116 % of control; the T/C (dose: 93.0 mg/kg/injection, schedule: Q01DX001 (ip), vehicle: water) was 166 % of control and 189 % of control; the T/C (dose: 140.0 mg/kg/injection, schedule: Q01DX001 (ip), vehicle: water) was 171 % of control and 176 % of control and 193 % of control.
On to `CCS(=O)(=O)C(S(=O)(=O)CC)S(=O)(=O)CC`, for which the T/C is, setting by setting: (dose: 100.0 mg/kg/injection, schedule: Q01DX001 (ip), vehicle: Klucel (hydroxypropylcellulose) (HPC)) 102 % of control; (dose: 200.0 mg/kg/injection, schedule: Q01DX001 (ip), vehicle: Klucel (hydroxypropylcellulose) (HPC)) 91 % of control; (dose: 400.0 mg/kg/injection, schedule: Q01DX001 (ip), vehicle: Klucel (hydroxypropylcellulose) (HPC)) 96 % of control.
As to `Clc1ccc(-c2cc[s+]s2)cc1`, the T/C by setting is: (dose: 12.5 mg/kg/injection, schedule: Q01DX009 (ip), vehicle: water) 91 % of control; (dose: 25.0 mg/kg/injection, schedule: Q04DX003 (ip), vehicle: water) 100 % of control; (dose: 50.0 mg/kg/injection, schedule: Q01DX009 (ip), vehicle: water) 88 % of control; (dose: 50.0 mg/kg/injection, schedule: Q04DX003 (ip), vehicle: water) 98 % of control; (dose: 100.0 mg/kg/injection, schedule: Q04DX003 (ip), vehicle: water) 98 % of control and 92 % of control.
In the case of `CSc1cccc[n+]1[O-]`, the T/C under setting [9] is 105 % of control; the T/C (dose: 100.0 mg/kg/injection, schedule: Q04DX002 (ip), vehicle: saline) was 103 % of control and 108 % of control; the T/C under setting [10] is 108 % of control; the T/C (dose: 200.0 mg/kg/injection, schedule: Q04DX002 (ip), vehicle: saline) was 105 % of control; the T/C under setting [11] was 101 % of control; the T/C (dose: 400.0 mg/kg/injection, schedule: Q04DX002 (ip), vehicle: saline) was 108 % of control and 118 % of control.
With `CC(O)CN1C(=O)c2cccc3cc([N+](=O)[O-])cc(c23)C1=O` (configuration not stated), the T/C was 95 % of control under setting [4], 103 % of control under setting [5] and 98 % of control under setting [6].
Consider `CC(=O)Nc1ccc(S(=O)(=O)c2ccc(N)cc2)cc1`, for which the T/C was 105 % of control (dose: 12.5 mg/kg/injection, schedule: Q04DX002 (ip), vehicle: saline with Tween-80); 109 % of control and 90 % of control under setting [7]; 97 % of control under setting [8]; 97 % of control and 102 % of control under setting [4]; 109 % of control under setting [5].
With `O=C(O)C(C=C(Cl)Cl)N1CCCCC1` (configuration not stated), the T/C (dose: 100.0 mg/kg/injection, schedule: Q04DX003 (ip), vehicle: saline) was 98 % of control; the T/C (dose: 200.0 mg/kg/injection, schedule: Q04DX003 (ip), vehicle: saline) is 93 % of control; the T/C (dose: 400.0 mg/kg/injection, schedule: Q04DX003 (ip), vehicle: saline) was 94 % of control.
On to `CCOC(=O)c1ccc(Nc2nnc(-c3c(OC)cc(OC)cc3OC)s2)cc1`, for which the T/C under setting [4] was 93 % of control, the T/C under setting [5] is 104 % of control and the T/C under setting [6] was 101 % of control.
In the case of `O=[N+]([O-])c1ccc(N/N=C(\CCc2ccccc2)c2ccccc2)c([N+](=O)[O-])c1`, the T/C was 93 % of control (dose: 50.0 mg/kg/injection, schedule: Q01DX009 (ip), vehicle: saline with Tween-80); 96 % of control (dose: 100.0 mg/kg/injection, schedule: Q01DX009 (ip), vehicle: saline with Tween-80); 86 % of control (dose: 200.0 mg/kg/injection, schedule: Q01DX009 (ip), vehicle: saline with Tween-80).
As for `O=C(O)C(Cc1ccc(O)cc1)NC(=O)C(CSC(c1ccccc1)(c1ccccc1)c1ccccc1)NC(c1ccccc1)(c1ccccc1)c1ccccc1` (configuration not stated), the T/C by setting is: (dose: 50.0 mg/kg/injection, schedule: Q01DX009 (ip), vehicle: saline) 92 % of control; under setting [9], 95 % of control; under setting [10], 100 % of control; under setting [11], 95 % of control.
Regarding `[O-]/[N+](=C\c1cccc(O)c1)c1ccccc1`, the T/C is 102 % of control (dose: 50.0 mg/kg/injection, schedule: Q01DX001 (ip), vehicle: saline); 106 % of control (dose: 100.0 mg/kg/injection, schedule: Q01DX001 (ip), vehicle: saline); 102 % of control (dose: 200.0 mg/kg/injection, schedule: Q01DX001 (ip), vehicle: saline); 100 % of control (dose: 400.0 mg/kg/injection, schedule: Q01DX001 (ip), vehicle: saline).
Turning to `NNC12CC3CC(CC(C3)C1)C2`, the T/C runs as follows: (dose: 1.56 mg/kg/injection, schedule: Q01DX009 (ip), vehicle: saline) 100 % of control; (dose: 3.12 mg/kg/injection, schedule: Q01DX009 (ip), vehicle: saline) 100 % of control; (dose: 6.25 mg/kg/injection, schedule: Q01DX009 (ip), vehicle: saline) 100 % of control; (dose: 12.5 mg/kg/injection, schedule: Q01DX009 (ip), vehicle: saline) 110 % of control and 90 % of control; (dose: 12.5 mg/kg/injection, schedule: Q04DX003 (ip), vehicle: saline) 105 % of control; (dose: 25.0 mg/kg/injection, schedule: Q04DX003 (ip), vehicle: saline) 118 % of control. Besides, the T/C (dose: 50.0 mg/kg/injection, schedule: Q04DX003 (ip), vehicle: saline) is 96 % of control.
As to `Cc1ccc(OC(=O)C2=C(C(=O)Oc3ccc(C)cc3)CCC2)cc1`, the T/C runs as follows: (dose: 75.0 mg/kg/injection, schedule: Q01DX001 (ip), vehicle: saline) 95 % of control; (dose: 150.0 mg/kg/injection, schedule: Q01DX001 (ip), vehicle: saline) 97 % of control; (dose: 300.0 mg/kg/injection, schedule: Q01DX001 (ip), vehicle: saline) 95 % of control.
As for `C1=C[N]2c3c4c(ccc3=C1)=CC=C[N]4[Ga]2[c]1ccccc1`, the T/C is 88 % of control (dose: 25.0 mg/kg/injection, schedule: Q04DX003 (ip), vehicle: saline with Tween-80); 97 % of control (dose: 50.0 mg/kg/injection, schedule: Q04DX003 (ip), vehicle: saline with Tween-80); 101 % of control (dose: 100.0 mg/kg/injection, schedule: Q04DX003 (ip), vehicle: saline with Tween-80).

For the origin of these results see PubChem BioAssay AID248 (DTP/NCI, 2004).
